Like-named read-outs stand apart in the source and are kept apart here. Values belong to the molecule of their own block, whether it stands above or below them.
Assays:
Jurkat lymphocytes = type: cell-based
Procedure: Cellular Loading of Nitroxides. Jurkat lymphocytes were cultured and loaded with nitroxides as previously described (5,6). […] After incubation, cells were washed 3 times in Hanks' Balanced Salt Solution (HBSS), and resuspended in […] HBSS. To lyse cells, […] digitonin was added to each cell suspension, which was then sonicated for […] in a bath sonicator (model G1 12SPIG, Laboratory Supplies Company, Inc., Hicksville, N.Y.). The lysate was assayed for nitroxide content by EPR spectroscopy. […] EPR Spectroscopy. EPR spectra were recorded on an X-band spectrometer (model E-109, Varian Inc., Palo Alto, Calif.) at the following settings: microwave power, 20 mW; microwave frequency, 9.55 GHz; field set, 3335 G; modulation frequency, 1 kHz; modulation amplitude, 0.5 G; field sweep, 80 G at 26.7 G min^-1 Where the amplitude of only the center spectral line was required, the sweep width was 8 […] software (Scientific Software Solutions, Northville, Mich.) was used for spectrometer control and data acquisition. Nitroxide signal was measured as the peak-to-trough amplitude of the center line of the three-line spectrum.

[1] = mouse, in vivo, iv
[2] = pH 6
[3] = literature values used for logP vs. logk' calibration line; cited from earlier work
[4] = In vivo EPR: nitroxide entrapped in brain after iv injection and saline wash of head vasculature; settings: mice, vasculature washed with normal saline
[5] = Determination of logP of labile esters from HPLC capacity factors; settings: pH 6

intracellular loading of nitroxide [1] (Jurkat lymphocytes): no additional improvement in loading
Molecule: 3-heptanoylmethoxycarbonyl-2,2,5,5-tetramethyl-1-pyrrolidinyloxyl [Ester 7]

percentage of original dose crossed the blood brain barrier and entrapped in the brain as nitroxide [1] [1]: about 65%
logP [2]: 2.67
Molecule: CCCCC(=O)OCOC(=O)C1CC(C)(C)N([O])C1(C)C (centres unmarked) [Ester 4, 3-pentanoylmethoxycarbonyl-2,2,5,5-tetramethyl-1-pyrrolidinyloxyl]

logP [2]: 2.60
Molecule: CC(C)(C)C(=O)OCOC(=O)C1CC(C)(C)N([O])C1(C)C (centres unmarked) [Ester 6]

The remaining lines, values behind:

Molecule: CCC(=O)OCOC(=O)C1CC(C)(C)N([O])C1(C)C (centres unmarked) [Ester 3, 3-propanoylmethyloxycarbonyl-2,2,5,5-tetramethyl-1-pyrrolidinyloxyl]
intracellular loading of nitroxide [1] (Jurkat lymphocytes): negligible effect on intracellular loading

Molecule: C[C@]12CCC(=O)C=C1CC[C@@H]1[C@@H]2[C@@H](O)C[C@@]2(C)[C@H]1CC[C@]2(O)C(=O)CO [hydrocortisone]
known logP [3]: 1.53

Molecule: CC(=O)OCOC(=O)C1CC(C)(C)N([O])C1(C)C (centres unmarked) [Ester 2, 3-Acetoxymethoxycarbonyl-2,2,5,5-tetramethyl-1-pyrrolidinyloxyl]
percentage of original dose crossed the blood brain barrier and entrapped in the brain as nitroxide [1] ([4]; 10-min point): about 42%
percentage of original dose crossed the blood brain barrier and entrapped in the brain as nitroxide [1] ([4]; 20-min point): about 42%

Molecule: CCC(=O)OCOC(=O)C1CC(C)(C)N(O)C1(C)C (centres unmarked) [Ester 3]
chromatographic logP [5]: 1.33

Molecule: CCCCC(=O)OCOC(=O)C1CC(C)(C)N(O)C1(C)C (centres unmarked) [Ester 4]
chromatographic logP [5]: 2.67

Molecule: CCCCCCC(=O)OCOC(=O)C1CC(C)(C)N(O)C1(C)C (centres unmarked) [Ester 7]
chromatographic logP [5]: 3.54

— patent publication US20100260684A1, “USE OF 3-ALKANOYLOXYMETHOXYCARBONYL NITROXIDE ESTERS AS OXIMETRY PROBES FOR MEASUREMENT OF OXYGEN STATUS IN TISSUES” (priority 2007, published 2010)
